# pEC50, pIC50, pKi: −log10 of the molar value.
# Columns and labels:
# [1] = molecular target: T1, 5-hydroxytryptamine receptor 6 (Homo sapiens, UniProt P50406); assay: Inhibition of cAMP production in HeLa cells expressing human 5-HT6 receptor; type: functional, cell-based
# [2] = molecular target: T1, 5-hydroxytryptamine receptor 6; assay: Maximum inhibition of cAMP production in HeLa cells expressing human 5-HT6 receptors; type: functional, cell-based
# [3] = molecular target: T1, 5-hydroxytryptamine receptor 6; assay: Displacement of [3H]LSD from cloned human 5-hydroxytryptamine 6 receptor expressed in HeLa cells; type: cell-based
# [4] = molecular target: T1, 5-hydroxytryptamine receptor 6; assay: Effective concentration for cAMP production in HeLa cells expressing human 5-HT6 receptors; type: functional, cell-based
# [5] = molecular target: T1, 5-hydroxytryptamine receptor 6; assay: Maximum effective concentration for cAMP production in HeLa cells expressing human 5-HT6 receptors; type: functional, cell-based
# T1 sequence (P50406 whole entry): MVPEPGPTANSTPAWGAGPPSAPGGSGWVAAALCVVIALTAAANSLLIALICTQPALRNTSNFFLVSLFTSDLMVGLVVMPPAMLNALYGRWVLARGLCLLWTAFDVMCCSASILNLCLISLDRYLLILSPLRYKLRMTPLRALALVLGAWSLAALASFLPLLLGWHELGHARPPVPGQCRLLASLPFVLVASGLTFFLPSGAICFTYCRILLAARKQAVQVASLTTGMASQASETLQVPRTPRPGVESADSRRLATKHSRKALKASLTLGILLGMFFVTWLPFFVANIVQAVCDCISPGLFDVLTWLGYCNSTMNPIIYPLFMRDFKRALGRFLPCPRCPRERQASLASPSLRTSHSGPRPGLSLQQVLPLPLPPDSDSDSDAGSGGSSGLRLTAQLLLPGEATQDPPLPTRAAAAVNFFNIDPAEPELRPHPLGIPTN
pEC50 [4],Emax [5],SMILES,pIC50 [1],Imax [2],pKi [3]
–,–,Cc1c(S(=O)(=O)n2cc(C[C@@H]3CCCN3C)c3ccccc32)sc2ccc(Cl)cc12,7.96,87.5%,7.96
–,–,CN1CCC[C@H]1Cc1cn(S(=O)(=O)c2ccc(Br)s2)c2ccccc12,6.95,96%,8.52
6.57,51.5%,O=S(=O)(c1cccc(F)c1)n1cc(C2=CCCNC2)c2ccccc21,–,–,8.07
–,–,Cc1ccc(S(=O)(=O)n2cc(C3CCN(Cc4ccccc4)C3)c3ccccc32)cc1 (stereo not given),6.91,72%,–
–,–,O=S(=O)(c1ccc(Br)s1)n1cc(C2CCN(Cc3ccccc3)C2)c2ccccc21 (stereo not given),6.96,69%,–
–,–,Cc1nc(C)c(S(=O)(=O)n2cc(C3=CCCNC3)c3ccccc32)o1,–,–,7.24
–,–,O=S(=O)(c1ccc(F)c(F)c1)n1cc(C2=CCCNC2)c2ccccc21,–,–,7.59
–,–,O=S(=O)(c1ccccc1C(F)(F)F)n1cc(C2=CCCNC2)c2ccccc21,–,–,7.66
–,–,Cc1ccc(S(=O)(=O)n2cc(C[C@@H]3CCCN3C)c3ccccc32)cc1,7.25,78.5%,8.30
–,–,Cc1ccc(S(=O)(=O)n2cc(C[C@@H]3CCCN3)c3ccccc32)cc1,–,–,7.48
–,–,CN1CCC(c2cn(S(=O)(=O)c3ccc(Cl)c(Cl)c3)c3ccccc23)C1 (stereo not given),6.97,100%,–
–,–,Cc1nc(N)sc1S(=O)(=O)n1cc(C2CCN(Cc3ccccc3)C2)c2ccccc21 (stereo not given),6.96,97%,–
–,–,CN1CCC[C@H]1Cc1cn(S(=O)(=O)c2ccc(I)cc2)c2ccccc12,7.31,99.5%,8.52
–,–,Cc1c(S(=O)(=O)n2cc(C3CCCNC3)c3ccccc32)sc2ccc(Cl)cc12 (stereo not given),–,–,7.36
–,–,O=S(=O)(c1ccc(Cl)c(Cl)c1)n1cc(C2CCN(Cc3ccccc3)C2)c2ccccc21 (stereo not given),7.21,63%,–
–,–,O=S(=O)(c1cccc(Cl)c1)n1cc(C[C@@H]2CCCN2)c2ccccc21,–,–,7.66
–,–,CN1CCC(c2cn(S(=O)(=O)c3ccccc3Br)c3ccccc23)C1 (stereo not given),7.27,98.5%,–
–,–,O=S(=O)(c1ccc(Br)s1)n1cc(C[C@@H]2CCCN2)c2ccccc21,–,–,7.70
–,–,O=S(=O)(c1cccc(Cl)c1)n1c2c(c3ccccc31)CCNC2,–,–,7.38
–,–,O=S(=O)(c1ccc(Cl)s1)n1cc(C2=CCCNC2)c2ccccc21,–,–,7.64
–,–,Cc1ccc(S(=O)(=O)n2c3c(c4ccccc42)CCNC3)cc1,–,–,6.57
–,–,CN1CCC[C@H]1Cc1cn(S(=O)(=O)c2ccc(N)cc2)c2ccccc12,7.61,100%,8.52
–,–,O=S(=O)(c1cccs1)n1cc(C2CCCNC2)c2ccccc21 (stereo not given),–,–,8.01

pEC50 [4],Emax [5],SMILES,pIC50 [1],Imax [2],pKi [3]
–,–,O=S(=O)(c1ccccc1Br)n1cc(C2CCN(Cc3ccccc3)C2)c2ccccc21 (stereo not given),7.68,62%,–
–,–,Nc1ccc(S(=O)(=O)n2cc(C3CCN(Cc4ccccc4)C3)c3ccccc32)cc1 (stereo not given),7.60,97%,–
–,–,CN1CCC[C@H]1Cc1cn(S(=O)(=O)c2ccccc2Br)c2ccccc12,7.12,87.5%,8.15
–,–,O=S(=O)(c1ccc(I)cc1)n1cc(C[C@@H]2CCCN2)c2ccccc21,–,–,7.47
–,–,O=S(=O)(c1ccc(Cl)s1)n1cc(C[C@@H]2CCCN2)c2ccccc21,–,–,7.60
–,–,"O=S(=O)(c1ccccc1)n1cc(C2CCCNC2)c2ccccc21 (single isomer, unassigned; enantiomer 1) [listing 1 of 2 here]",–,–,8.52
–,–,Cc1c(S(=O)(=O)n2cc(C[C@H]3CCCN3)c3ccccc32)sc2ccc(Cl)cc12,–,–,6.55
–,–,O=S(=O)(c1ccc(Cl)c(Cl)c1)n1cc(C[C@@H]2CCCN2)c2ccccc21,–,–,7.31
–,–,O=S(=O)(c1ccc(Cl)cc1)n1cc(C[C@@H]2CCCN2)c2ccccc21,–,–,7.31
–,–,CN1CCC(c2cn(S(=O)(=O)c3ccc(Cl)cc3)c3ccccc23)C1 (stereo not given),7.07,86.5%,–
–,–,O=S(=O)(c1ccccc1)n1c2c(c3ccccc31)CCNC2,–,–,6.60
–,–,O=S(=O)(c1cccc(Cl)c1Cl)n1cc(C2=CCCNC2)c2ccccc21,–,–,7.70
–,–,COc1ccc(S(=O)(=O)n2cc(C[C@@H]3CCCN3)c3ccccc32)cc1OC,–,–,7.64
–,–,CN1CCC[C@@H]1Cc1cn(S(=O)(=O)c2ccccc2)c2ccccc12,9.22,75%,8.10
–,–,Nc1ccc(S(=O)(=O)n2cc(C[C@@H]3CCCN3)c3ccccc32)cc1,8.12,72.9%,8.15
6.46,62%,O=S(=O)(c1ccc(F)cc1)n1cc(C2=CCCNC2)c2ccccc21,–,–,7.98
–,–,CN1CCC(c2cn(S(=O)(=O)c3ccc(N)cc3)c3ccccc23)C1 (stereo not given),7.81,89.5%,–
–,–,COc1ccc(S(=O)(=O)n2cc(C[C@@H]3CCCN3)c3ccccc32)cc1,–,–,7.40
–,–,CN1CCC[C@H]1Cc1cn(S(=O)(=O)c2ccc(Cl)cc2)c2ccccc12,8.09,86%,8.15
7.18,60.5%,O=S(=O)(c1ccc(F)c(F)c1)n1cc(C2CCCNC2)c2ccccc21 (stereo not given),–,–,–
–,–,CN1CCC[C@H]1Cc1cn(S(=O)(=O)c2ccccc2)c2ccccc12,7.09,87%,8.30
–,–,O=S(=O)(c1ccc(F)cc1F)n1cc(C2=CCCNC2)c2ccccc21,–,–,7.89
7.29,52%,O=S(=O)(c1ccccc1F)n1cc(C2=CCCNC2)c2ccccc21,–,–,8.04

pEC50 [4],Emax [5],SMILES,pIC50 [1],Imax [2],pKi [3]
–,–,CN1CCC[C@H]1Cc1cn(S(=O)(=O)c2ccc(Cl)s2)c2ccccc12,9.00,99%,8.40
6.80,41%,O=S(=O)(c1ccccc1)n1cc(C2=CCCNC2)c2ccccc21,–,–,8.34
–,–,O=S(=O)(c1cccc(C(F)(F)F)c1)n1cc(C2=CCCNC2)c2ccccc21,–,–,7.35
–,–,COc1ccc(S(=O)(=O)n2cc(C[C@@H]3CCCN3C)c3ccccc32)cc1OC,9.10,100%,8.10
–,–,COc1ccc(S(=O)(=O)n2cc(C3CCCNC3)c3ccccc32)cc1 (stereo not given),8.14,65.5%,–
–,–,CN1CCC[C@H]1Cc1cn(S(=O)(=O)c2cccc(Cl)c2)c2ccccc12,7.02,77%,8.40
–,–,O=S(=O)(c1ccc(Cl)cc1)n1cc(C2=CCCNC2)c2ccccc21,–,–,7.66
–,–,COc1ccc(S(=O)(=O)n2cc(C3=CCCNC3)c3ccccc32)cc1,–,–,7.80
–,–,O=S(=O)(c1ccccc1)n1cc(C[C@@H]2CCCN2)c2ccccc21,–,–,7.56
–,–,COc1ccc(S(=O)(=O)n2cc(C[C@@H]3CCCN3C)c3ccccc32)cc1,–,–,7.71
–,–,O=S(=O)(c1cccc(Cl)c1)n1cc(C2=CCCNC2)c2ccccc21,–,–,7.85
7.23,93%,O=S(=O)(c1ccc(Cl)s1)n1cc(C2CCCNC2)c2ccccc21 (stereo not given),–,–,–
–,–,O=S(=O)(c1ccccc1Cl)n1cc(C2=CCCNC2)c2ccccc21,–,–,7.89
–,–,O=S(=O)(c1ccccc1Br)n1cc(C[C@@H]2CCCN2)c2ccccc21,–,–,7.37
–,–,CN1CCC(c2cn(S(=O)(=O)c3ccc(I)cc3)c3ccccc23)C1 (stereo not given),7.36,93.5%,–
–,–,Nc1ccc(S(=O)(=O)n2c3c(c4ccccc42)CCNC3)cc1,–,–,6.94
–,–,O=S(=O)(c1ccc(Cl)c(Cl)c1)n1cc(C2=CCCNC2)c2ccccc21,–,–,7.32
–,–,COc1ccc(S(=O)(=O)n2cc(C3CCN(C)C3)c3ccccc32)cc1OC (stereo not given),7.01,100%,–
–,–,CN1CCC(c2cn(S(=O)(=O)c3ccc(F)cc3)c3ccccc23)C1 (stereo not given),7.28,83.5%,–
7.05,50%,Cc1nn(C)c(Cl)c1S(=O)(=O)n1cc(C2=CCCNC2)c2ccccc21,–,–,8.10
–,–,CN1CCC[C@H]1Cc1cn(S(=O)(=O)c2ccc(Cl)c(Cl)c2)c2ccccc12,8.14,86.5%,7.92

SMILES,pEC50 [4],Emax [5],pIC50 [1],Imax [2],pKi [3]
CN1CCC[C@@H]1Cc1cn(S(=O)(=O)c2ccc(Br)s2)c2ccccc12,6.99,76.5%,–,–,8.40
O=S(=O)(c1ccccc1)n1cc(C2CCCNC2)c2ccccc21 (stereo in doubt) [listing 1 of 2 here],7.44,–,–,–,9.00
O=S(=O)(c1ccccc1)n1cc(C2CCCNC2)c2ccccc21 (racemic) [listing 1 of 2 here],–,100%,–,–,–
O=S(=O)(c1ccccc1)n1cc(C2CCCNC2)c2ccccc21 (stereo in doubt) [listing 2 of 2 here],–,100%,–,–,–
O=S(=O)(c1ccccc1)n1cc(C2CCCNC2)c2ccccc21 (racemic) [listing 2 of 2 here],7.62,–,–,–,–
"O=S(=O)(c1ccccc1)n1cc(C2CCCNC2)c2ccccc21 (single isomer, unassigned; enantiomer 1) [listing 2 of 2 here]",–,0%,–,–,–

# From ChEMBL document CHEMBL1143466, “Conformationally constrained N1-arylsulfonyltryptamine derivatives as 5-HT6 receptor antagonists” (Bioorg Med Chem Lett, 2005)
